In this series the test system is adult pigs with experimentally induced ARDS. Briefly: ARDS model: adverse side effects on cardiovascular parameters. It is filed as in vivo, pig. As to conditions: iv infusion 2 mg/kg, anaesthetized pigs. As to the method: After ethical approval, 3 months old pigs (body weight 30-35 kg), in all 12, were purchased from a local farm and 2 pigs on 6 occasions brought to the laboratory in the morning on the day for the experiment. […] Upon arrival, the pigs were sedated and thereafter kept fully anaesthetized during the entire experiment until termination late the same day. Tracheostomy was performed and mechanical ventilation performed with a ventilator. This setup is visualized in FIG. 1. Tubes positioned in arteries, veins and via a vein also in the right heart. Equipment was implanted to enable the use of PiCCO instrument (Pulse index, Continuous Cardiac Output=PiCCO) in order to enable exact determination of the total blood volume in the lungs, extra-vascular lung water (EVLW) and cardiac function parameters. Blood pressure transducers were inserted in the pulmonary artery and in a central artery. Arterial blood gasses and additional blood parameters were checked at regular intervals. Oximetry was used to determine hemoglobin oxygen saturation in arterial blood. The core body temperature was kept automatically at desired normal level. EKG was recorded. […]
Treatment with the peptide AF-16 or the vehicle started after the induction of the lung injury (i.e., after the injurious ventilation). […] The PiCCO values were determined once every hour for up to 4 hours after the infusion of the test substance. […]

Where a SMILES comes first, the peptide text is derived from it.

In the case of `CC(C)C[C@H](NC(=O)CNC(=O)[C@@H](NC(=O)[C@H](CC(N)=O)NC(=O)[C@H](CC(N)=O)NC(=O)[C@H](CCC(=O)O)NC(=O)[C@@H]1CCCN1C(=O)[C@H](CC(N)=O)NC(=O)[C@H](CO)NC(=O)[C@H](CCCNC(=N)N)NC(=O)[C@@H](NC(=O)[C@H](CCCCN)NC(=O)[C@H](CO)NC(=O)[C@H](Cc1c[nH]cn1)NC(=O)[C@H](CS)NC(=O)[C@@H](N)C(C)C)[C@@H](C)O)C(C)C)C(=O)O` [AF-16, VCHSKTRSNPENNVGL] (H-VCHSKTRSNPENNVGL-OH; N-terminus and C-terminus assumed), the “adverse side effects on cardiovascular parameters, including blood pressure and heart rates” value is “no adverse side effects could be demonstrated”.

Values taken from patent US12582697B2, “Antisecretory factor for use in treatment and/or prevention of acute respiratory failure” (LANTMÄNNEN MEDICAL AB, priority 2018, dated 2026).
